Measured values as given in PubChem BioAssay (NCI).
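96-well plates; 48 h exposure; 5 concentrations. Endpoints by linear interpolation between flanking doses. Not reached: highest tested concentration assigned. Abbreviation: GI50, concentration required for 50% inhibition of growth. TGI: total growth inhibition.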

What was measured:
Assay in all cases: DTP human tumour cell line panel, 48 h
OVCAR-3 ovarian = test system: OVCAR-3 ovarian
SNB-75 CNS = test system: SNB-75 CNS
SR leukemia = test system: SR leukemia
OVCAR-4 ovarian = test system: OVCAR-4 ovarian
EKVX NSCLC = test system: EKVX NSCLC
K-562 leukemia = test system: K-562 leukemia
MOLT-4 leukemia = test system: MOLT-4 leukemia
A498 renal = test system: A498 renal
MALME-3M melanoma = test system: MALME-3M melanoma
786-0 renal = test system: 786-0 renal

Row | SMILES | TGI (OVCAR-3 ovarian) [µM] | TGI (SNB-75 CNS) [µM] | TGI (SR leukemia) [µM] | TGI (OVCAR-4 ovarian) [µM] | TGI (EKVX NSCLC) [µM] | TGI (K-562 leukemia) [µM] | TGI (MOLT-4 leukemia) [µM] | GI50 (A498 renal) [µM] | TGI (A498 renal) [µM] | TGI (MALME-3M melanoma) [µM] | TGI (786-0 renal) [µM] | GI50 (K-562 leukemia) [µM] | GI50 (OVCAR-3 ovarian) [µM] | GI50 (SNB-75 CNS) [µM] | GI50 (MALME-3M melanoma) [µM] | GI50 (SR leukemia) [µM] | GI50 (OVCAR-4 ovarian) [µM] | GI50 (EKVX NSCLC) [µM] | GI50 (MOLT-4 leukemia) [µM]
1 | CC1(C)CCc2cc3c(cc2O1)OC(C)(C)CC3=O | > 100 | > 100 | > 100 | > 100 | > 100 | > 100 | > 100 |  |  |  |  |  |  |  |  |  |  |  | 
2 | CN(C)C=O.CN(C)C=O.CN1C(C(=O)Nc2ccccn2)=C([O-])c2ccccc2S1(=O)=O.CN1C(C(=O)Nc2ccccn2)=C([O-])c2ccccc2S1(=O)=O.[Cu+2] | > 100 | 49.5 | > 100 | 78.7 | > 100 | > 100 |  | 24.2 | 65.3 | > 100 | > 100 | > 100 |  |  |  |  |  |  | 
3 | CCCCCCCCCCCCCCC(C(=O)[O-])[n+]1ccccc1 (centres undefined) | > 100 | > 100 | > 100 | > 100 | > 100 | > 100 | > 100 |  | > 100 |  | > 100 |  |  |  |  |  |  |  | 
4 | COc1cc2c(cc1OCCCOc1cc3c(cc1OC)C(=O)N1CC(F)(F)C[C@H]1C=N3)N=C[C@@H]1CC(F)(F)CN1C2=O | 6.99 | 18.4 | 0.508 | 17.4 | 7.06 | 4.81 | 1.72 | 1.03 | 2.65 | 3.19 | 0.877 | 0.601 | 0.42 | 1.58 | 1.27 | < 0.0261 | 3.45 | 1.66 | 0.0383
5 | COC(=O)C12OCC34C(CC5C(C)C6=CC(=O)OC6=CC5(C)C3C(O)C1O)OC(=O)C(OC(C)=O)C24 (centres undefined) | 29.4 | 42.1 | 64.6 | 41.2 | 31 | 54.3 | 45.6 |  | 43.9 | 21.9 | 29.1 |  |  | 14.7 |  |  |  |  | 
6 | Cc1cccc(NC(N)=S)c1 | > 100 | > 100 | > 100 | > 100 | > 100 | > 100 | > 100 |  | > 100 | > 100 |  |  |  |  |  |  |  |  | 
7 | NC(CCCNc1ccc(O)cc1)C(=O)O (centres undefined) | 35 | > 100 | 55.8 | 31.7 | > 88.8 | > 72.1 | 56.9 |  | > 73.1 | > 100 | 31.5 |  |  |  |  |  |  |  | 
8 | NS(=O)(=O)c1ccc(C(=O)O)cc1 | > 100 |  |  | > 100 | > 100 | > 100 | > 100 |  | > 100 | > 100 | > 100 |  |  |  |  |  |  |  | 
9 | COc1ccc2c(c1)C(=O)c1c-2n(CCCCl)c(=O)c2cc([N+](=O)[O-])ccc12 | 14 | > 100 |  | 33.6 | > 100 | > 100 |  | 1.39 |  | 0.461 | 0.159 |  | 1.32 |  | 0.0533 | < 0.0125 | 0.224 | 30.8 | < 0.0211
10 | Nc1ccc([As](=O)(O)O)cc1 | > 100 | > 100 | > 100 | > 100 | > 100 | > 100 | > 100 |  | > 100 | > 100 | > 100 |  |  |  |  |  |  |  | 
11 | Cn1ncc2c(=O)[nH]c(-c3ccccc3)nc21 |  | > 100 |  | > 100 | > 100 | > 100 | > 100 |  |  | > 100 |  |  |  |  |  |  |  |  | 
12 | CC(C)(c1ccccc1)c1ccc(Oc2ccc3c(c2)-c2nc-3nc3[nH]c(nc4nc(nc5[nH]c(n2)c2ccc(Oc6ccc(C(C)(C)c7ccccc7)cc6)cc52)-c2cc(Oc5ccc(C(C)(C)c6ccccc6)cc5)ccc2-4)c2ccc(Oc4ccc(C(C)(C)c5ccccc5)cc4)cc32)cc1 |  | 67.8 |  |  | > 100 | > 100 | > 100 |  | > 100 | > 100 | > 100 |  |  |  |  |  |  |  | 
13 | O=C1CC(c2ccccc2)NCCCCN2CC(CN1)C(C(O)c1ccccc1)C2=O (centres undefined) | > 100 | > 100 | > 100 | > 100 | > 100 |  | > 100 |  | > 100 | > 100 | > 100 |  |  |  |  |  |  |  | 
14 | O=C(O)\C=C/C=C/C=C/C=C/C(=O)O | > 100 | > 100 | > 100 | > 100 | > 100 | > 100 | > 100 |  | > 100 | > 100 | > 100 |  |  |  |  |  |  |  | 
15 | CC1(C)CCCC2(C)C3=C(CCC12)C(=O)OC3 (centres undefined) | > 100 | > 100 | > 100 | > 100 | > 100 |  | > 100 |  | > 100 | > 100 | > 100 |  |  |  |  |  |  |  | 
